Results: patent publication US9708306B2, “Benzimidazole derivatives and preparation process and pharmaceutical uses thereof” (WUHAN LL SCIENCE AND TECHNOLOGY DEVELOPMENT CO., LTD, priority 2015, dated 2017)
Like-named read-outs stand apart in the source and are kept apart here.

What was measured:
[1] = tested on: renovascular hypertensive rats; assay: Effect on reducing blood pressure of renovascular hypertensive rats by single oral administration of potassium salt of QR01019; assay type: in vivo, Wistar rats; conditions: RHR; for Maximum blood pressure reduction / Variations on heart rate: 1.0 mg/kg, single oral administration
Protocol: Wistar rats (provided by Hubei Province Disease Prevention Control Center, Wuhan, Hubei), male, weighted of 180 to 200 g, are randomly classified into 5 groups, including negative control group (0.5% CMC-Na), positive control group (1.0 mg/kg of potassium salt of Azilsartan medoxomil as the positive drug) and three groups with the test compound, QR01019 potassium salt (1.0 mg/kg), 6-8 animals per group. The unilateral renal artery of the rates were ligated to form two-kidney, one-clip renovascular hypertensive rat (RHR) models. After the surgery, the blood pressure was measured for weekly, and the measurement continued for 4 weeks. The rats whose blood pressures were steadily elevated by 4 kPa were successfully modeled rats. Before measuring blood pressure, the rat tails were heated by using a cyclic water bath tail sleeve at 39° C. to expand tail vessel, and thereafter, a tail sleeve method (BP2010A noninvasive blood pressure meter, Beijing Jiandeer Technology Limited Corporation, No. 1, Shangdi 10th Street, Haidian District, Beijing) was used to measure the blood pressures and heart rates of the rats before the administrations and at 1, 3, 5, 7, and 10 hours after oral administration, and each of the time points was measured three times to take the mean value. Maximum Blood pressure reduction (%)=maximum blood pressure reduction value after the administration/blood pressure value before the administration*100%.

[2] = tested on: spontaneously hypertensive rats (SHR); assay: Effect on reducing blood pressure of spontaneously hypertensive rats (SHR) by multiple oral administrations; assay type: in vivo; conditions: for inhibition in vivo at 0.5 mg/kg / inhibition in vivo at 1 mg/kg / inhibition in vivo at 2 mg/kg: Rattus norvegicus; for inhibition in vivo at 0.5 mg/kg / inhibition in vivo at 1 mg/kg / inhibition in vivo at 2 mg/kg / blood pressure reduction effect compared with Azilsartan medoxomil: SHR; for blood pressure reduction effect compared with Azilsartan medoxomil / reduction effects on the heart rate of SHR rats: result in words; for reduction effects on the heart rate of SHR rats: during the whole administration
[3] = tested on: renovascular hypertensive rats; assay: Effect on reducing blood pressure of renovascular hypertensive rats by single oral administration; assay type: in vivo, Wistar rats; conditions: for change in vivo at 0.5 mg/kg / inhibition in vivo at 0.5 mg/kg / change in vivo at 1 mg/kg / inhibition in vivo at 1 mg/kg / change in vivo at 2 mg/kg / inhibition in vivo at 2 mg/kg: Rattus norvegicus, single oral administration; for change in vivo at 0.5 mg/kg / change in vivo at 1 mg/kg / change in vivo at 2 mg/kg: RHR, read-out: Variations on heart rate; for inhibition in vivo at 0.5 mg/kg / inhibition in vivo at 1 mg/kg / inhibition in vivo at 2 mg/kg: two-kidney one-clip RHR, measured 1-10 h, read-out: Maximum blood pressure reduction; for blood pressure reduction at 24 hours after the administration / blood pressure reduction effect compared with Azilsartan medoxomil / lasting time of the blood pressure reduction effect compared with Azilsartan medoxomil: renal artery-ligated rat; for blood pressure reduction at 24 hours after the administration: dose not stated; for blood pressure reduction effect compared with Azilsartan medoxomil / lasting time of the blood pressure reduction effect compared with Azilsartan medoxomil: result in words
normal rats = assay: Effect on blood pressure of normal rats by single oral administration; assay type: in vivo, Wistar rats; conditions: Rattus norvegicus, po, single, normal rats; for inhibition in vivo at 0.5 mg/kg / inhibition in vivo at 1 mg/kg / inhibition in vivo at 2 mg/kg: 8 h, read-out: blood pressure reduction at 8 h after the administration; for inhibition in vivo at 0.5 mg/kg / change in vivo at 0.5 mg/kg: 0.5 mg/kg p.o.; for inhibition in vivo at 1 mg/kg / change in vivo at 1 mg/kg: 1.0 mg/kg p.o.; for inhibition in vivo at 2 mg/kg / change in vivo at 2 mg/kg: 2.0 mg/kg p.o.; for change in vivo at 0.5 mg/kg / change in vivo at 1 mg/kg / change in vivo at 2 mg/kg: read-out: variations on heart rate
[4] = 0.5 mg/kg oral once per day, 1 hour after the administration, read-out: Maximum blood pressure reduction, 1st-day administration
[5] = 0.5 mg/kg oral once per day, 1 hour after the administration, read-out: Maximum blood pressure reduction, 7th-day administration
[6] = 0.5 mg/kg oral once per day, 1 hour after the administration, read-out: Maximum blood pressure reduction, 14th-day administration
[7] = 0.5 mg/kg oral, read-out: Heart Rate (effect on reducing heart rate)
[8] = 1.0 mg/kg oral once per day, 1 hour after the administration, read-out: Maximum blood pressure reduction, 1st-day administration
[9] = 1.0 mg/kg oral once per day, 1 hour after the administration, read-out: Maximum blood pressure reduction, 7th-day administration
[10] = 1.0 mg/kg oral once per day, 1 hour after the administration, read-out: Maximum blood pressure reduction, 14th-day administration
[11] = 1.0 mg/kg oral, read-out: Heart Rate (effect on reducing heart rate)
[12] = 2.0 mg/kg oral once per day, 1 hour after the administration, read-out: Maximum blood pressure reduction, 1st-day administration
[13] = 2.0 mg/kg oral once per day, 1 hour after the administration, read-out: Maximum blood pressure reduction, 7th-day administration
[14] = 2.0 mg/kg oral once per day, 1 hour after the administration, read-out: Maximum blood pressure reduction, 14th-day administration
[15] = 2.0 mg/kg oral, read-out: Heart Rate (effect on reducing heart rate)

SMILES | inhibition in vivo at 0.5 mg/kg [2, 4] [%] | inhibition in vivo at 0.5 mg/kg [2, 5] [%] | inhibition in vivo at 0.5 mg/kg [2, 6] [%] | inhibition in vivo at 0.5 mg/kg [2, 7] [%] | inhibition in vivo at 1 mg/kg [2, 8] [%] | inhibition in vivo at 1 mg/kg [2, 9] [%] | inhibition in vivo at 1 mg/kg [2, 10] [%] | inhibition in vivo at 1 mg/kg [2, 11] [%] | inhibition in vivo at 2 mg/kg [2, 12] [%] | inhibition in vivo at 2 mg/kg [2, 13] [%] | inhibition in vivo at 2 mg/kg [2, 14] [%] | inhibition in vivo at 2 mg/kg [2, 15] [%] | blood pressure reduction effect compared with Azilsartan medoxomil [2] | reduction effects on the heart rate of SHR rats [2] | change in vivo at 0.5 mg/kg [3] [%] | inhibition in vivo at 0.5 mg/kg [3] [%] | change in vivo at 1 mg/kg [3] [%] | inhibition in vivo at 1 mg/kg [3] [%] | change in vivo at 2 mg/kg [3] [%] | inhibition in vivo at 2 mg/kg [3] [%] | further results
CCOc1nc2cccc(C(=O)OCc3oc(=O)oc3C)c2n1Cc1ccc(-c2ccccc2-c2noc(=O)[n-]2)cc1.[K+] [Positive control, potassium salt of Azilsartan medoxomil, reference compound] |  |  |  |  |  |  |  |  |  |  |  |  |  |  |  |  |  |  |  |  | Maximum blood pressure reduction [1]: 34 ± 3.6%; Variations on heart rate [1]: −14 ± 7%
CCOc1nc2cccc(C(=O)OC(C)OC(=O)OCc3nc(C)c(C)nc3C)c2n1Cc1ccc(-c2ccccc2-c2noc(=O)[nH]2)cc1.[K] (stereo not drawn) [QR01019 potassium salt] |  |  |  |  |  |  |  |  |  |  |  |  |  |  |  |  |  |  |  |  | Maximum blood pressure reduction [1]: 38 ± 4.3%; Variations on heart rate [1]: −18 ± 5%; regulation on the heart rate compared with positive control group ([1]; result in words): obviously superior to the positive control group; blood pressure reduction effect compared with control group ([1]; same dosage, result in words): significant blood pressure reduction effect
CCOc1nc2cccc(C(=O)OCc3no[n+]([O-])c3C)c2n1Cc1ccc(-c2ccccc2-c2noc(=O)[nH]2)cc1 [QR01023] | 25 ± 8.2 | 24 ± 7.1 | 25 ± 6.8 | 20 ± 3 | 39 ± 6 | 38 ± 7 | 42 ± 5.3 | 14 ± 4 | 45 ± 7.3 | 48 ± 9.5 | 40 ± 8.2 | 23 ± 5 | obviously superior to that of the Azilsartan medoxomil positive drug | significant reduction effects on the heart rate | -8 ± 5 | 18 ± 2.3 | -16 ± 7 | 32 ± 8.1 | -23 ± 6 | 42 ± 4.6 | blood pressure reduction at 24 hours after the administration [3]: 18%; blood pressure reduction effect compared with Azilsartan medoxomil [3]: obviously superior to that of the Azilsartan medoxomil positive drug; lasting time of the blood pressure reduction effect compared with Azilsartan medoxomil [3]: close to that of Azilsartan medoxomil; inhibition in vivo at 0.5 mg/kg (normal rats): 5.3 ± 1.4%; inhibition in vivo at 1 mg/kg (normal rats): 3.6 ± 6.1%; inhibition in vivo at 2 mg/kg (normal rats): 4.3 ± 2.1%; change in vivo at 0.5 mg/kg (normal rats): -3 ± 2%; change in vivo at 1 mg/kg (normal rats): 6%; change in vivo at 2 mg/kg (normal rats): -3 ± 5%
CCOc1nc2cccc(C(=O)OCc3no[n+]([O-])c3CO[N+](=O)[O-])c2n1Cc1ccc(-c2ccccc2-c2noc(=O)[nH]2)cc1 [QR01034] | 25 ± 8.1 | 28 ± 7.4 | 26 ± 5.1 | 19 ± 2 | 39 ± 7.5 | 39 ± 6.8 | 42 ± 5.9 | 15 ± 4 | 44 ± 8.6 | 45 ± 7 | 46 ± 7.3 | 21 ± 3 | obviously superior to that of the Azilsartan medoxomil positive drug | significant reduction effects on the heart rate | -12 ± 8 | 23 ± 1.9 | -15 ± 7 | 36 ± 4.8 | -21 ± 7 | 45 ± 6 | blood pressure reduction at 24 hours after the administration [3]: 25%; blood pressure reduction effect compared with Azilsartan medoxomil [3]: obviously superior to that of the Azilsartan medoxomil positive drug; lasting time of the blood pressure reduction effect compared with Azilsartan medoxomil [3]: close to that of Azilsartan medoxomil; inhibition in vivo at 0.5 mg/kg (normal rats): 3.4 ± 2.6%; inhibition in vivo at 1 mg/kg (normal rats): 5.1 ± 3.6%; inhibition in vivo at 2 mg/kg (normal rats): 3.4 ± 5%; change in vivo at 0.5 mg/kg (normal rats): -2 ± 5%; change in vivo at 1 mg/kg (normal rats): 5%; change in vivo at 2 mg/kg (normal rats): -2 ± 5%
CCOc1nc2cccc(C(=O)OCc3no[n+]([O-])c3C#N)c2n1Cc1ccc(-c2ccccc2-c2noc(=O)[nH]2)cc1 [QR01036] | 20 ± 5.3 | 24 ± 8.6 | 24 ± 5.9 | 14 ± 4 | 35 ± 7.8 | 35 ± 4.6 | 40 ± 7.8 | 25 ± 2 | 46 ± 9.2 | 45 ± 8.3 | 48 ± 7.2 | 21 ± 3 | obviously superior to that of the Azilsartan medoxomil positive drug | significant reduction effects on the heart rate | -12 ± 9 | 19 ± 3.5 | -18 ± 7 | 38 ± 4.2 | -25 ± 7 | 46 ± 5 | blood pressure reduction at 24 hours after the administration [3]: 24%; blood pressure reduction effect compared with Azilsartan medoxomil [3]: obviously superior to that of the Azilsartan medoxomil positive drug; lasting time of the blood pressure reduction effect compared with Azilsartan medoxomil [3]: close to that of Azilsartan medoxomil; inhibition in vivo at 0.5 mg/kg (normal rats): 2.8 ± 2.1%; inhibition in vivo at 1 mg/kg (normal rats): 5.2 ± 3.5%; inhibition in vivo at 2 mg/kg (normal rats): 6.3 ± 2%; change in vivo at 0.5 mg/kg (normal rats): -1 ± 6%; change in vivo at 1 mg/kg (normal rats): -8 ± 2%; change in vivo at 2 mg/kg (normal rats): -5 ± 5%
